According to PubChem BioAssay (NCI):
Values joined by “and” are separate entries in the source; they are usually repeats but may differ in a detail not shown here. Equal entries are not always repeated.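 Protocol summary: plate cells (96-well), add compound at 5 concentrations, incubate 48 h, interpolate endpoints linearly. Abbreviation: GI50, concentration required for 50% inhibition of growth. The concentration for full growth arrest is given as TGI.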 Where a SMILES comes first, the peptide text is derived from it. [ ]: non-standard residue; d: D form. The star is where a group is joined. NMeF = CN[C@@H](Cc1ccccc1)C(=O)O; NMeV = CN[C@H](C(=O)O)C(C)C; Boc = CC(C)(C)OC(=O)*; OBn = c1ccc(CO*)cc1

Legend:
Assay in all cases: DTP human tumour cell line panel, 48 h
[1] = tested on: ACHN renal
[2] = tested on: CAKI-1 renal
[3] = tested on: COLO 205 colon
[4] = tested on: DMS 114 small cell lung
[5] = tested on: DMS 273 small cell lung
[6] = tested on: DU-145 prostate
[7] = tested on: HCC-2998 colon
[8] = tested on: HCT-116 colon
[9] = tested on: HCT-15 colon
[10] = tested on: HL-60(TB) leukemia
[11] = tested on: HOP-92 NSCLC
[12] = tested on: HS 578T breast
[13] = tested on: HT29 colon
[14] = tested on: KM12 colon
[15] = tested on: KM20L2 colon
[16] = tested on: LOX IMVI melanoma
[17] = tested on: LXFL 529 NSCLC
[18] = tested on: M14 melanoma
[19] = tested on: M19-MEL melanoma
[20] = tested on: MALME-3M melanoma
[21] = tested on: NCI-H226 lung
[22] = tested on: NCI-H23 lung
[23] = tested on: NCI/ADR-RES ovarian
[24] = tested on: OVCAR-3 ovarian
[25] = tested on: OVCAR-4 ovarian
[26] = tested on: OVCAR-5 ovarian
[27] = tested on: PC-3 prostate
[28] = tested on: RPMI-8226 leukemia
[29] = tested on: SF-539 CNS
[30] = tested on: SK-MEL-2 melanoma
[31] = tested on: SK-MEL-5 melanoma
[32] = tested on: SK-OV-3 ovarian
[33] = tested on: SN12C renal
[34] = tested on: SNB-19 CNS
[35] = tested on: SR leukemia
[36] = tested on: TK-10 renal
[37] = tested on: UACC-257 melanoma
[38] = tested on: UACC-62 melanoma
[39] = tested on: UO-31 renal
[40] = tested on: XF 498 CNS
[41] = tested on: 786-0 renal
[42] = tested on: A498 renal
[43] = tested on: A549 NSCLC
[44] = tested on: BT-549 breast
[45] = tested on: CCRF-CEM leukemia
[46] = tested on: DLD-1 colon
[47] = tested on: EKVX NSCLC
[48] = tested on: HOP-18 NSCLC
[49] = tested on: HOP-62 NSCLC
[50] = tested on: IGROV1 ovarian
[51] = tested on: K-562 leukemia
[52] = tested on: MCF7 breast
[53] = tested on: MDA-MB-231 breast
[54] = tested on: MDA-MB-435
[55] = tested on: MOLT-4 leukemia
[56] = tested on: NCI-H460 lung
[57] = tested on: NCI-H522 lung
[58] = tested on: OVCAR-8 ovarian
[59] = tested on: RXF 393 renal
[60] = tested on: SF-268 CNS
[61] = tested on: SF-295 CNS
[62] = tested on: SK-MEL-28 melanoma
[63] = tested on: SNB-75 CNS
[64] = tested on: SNB-78 CNS
[65] = tested on: SW-620 colon
[66] = tested on: T-47D breast
[67] = tested on: U251 CNS

How did the TGI [1] turn out when `CN(C)[C@H]1CC[C@H]2[C@@H]3CCC4C[C@@H](NC(=O)NC(Cc5ccccc5)c5nccs5)CC[C@]4(C)[C@H]3CC[C@]12C` (stereo not given in full) was run?
Its TGI is 2.86 µM.

What about the TGI [2] of the same compound?
Its TGI is 3.11 µM.

And the TGI [3]?
Its TGI is 3.05 µM.

And the TGI [4]?
Its TGI is 3.31 µM.

What about the TGI [5] of the same compound?
The TGI was 3.86 µM.

What about the TGI [6] of the same compound?
Its TGI is 6.67 µM.

And the TGI [7]?
Its TGI is 3.16 µM.

What about the TGI [8] of the same compound?
Its TGI is 1.33 µM.

And the TGI [9]?
The TGI was 2.03 µM.

What about the TGI [10] of the same compound?
The TGI was 0.376 µM.

What about the TGI [11] of the same compound?
The TGI was 2.82 µM.

What about the TGI [12] of the same compound?
The TGI was 5.36 µM.

And the TGI [13]?
Its TGI is 1.9 µM.

What about the TGI [14] of the same compound?
The TGI was 3.44 µM.

And the TGI [15]?
Its TGI is 2.81 µM.

And the TGI [16]?
The TGI was 3.46 µM.

And the TGI [17]?
The TGI was 1.61 µM.

And the TGI [18]?
Its TGI is 3.23 µM.

What about the TGI [19] of the same compound?
The TGI was 3.41 µM.

And the TGI [20]?
The TGI was 3.37 µM.

What about the TGI [21] of the same compound?
The TGI was 3.89 µM.

And the TGI [22]?
The TGI was 3.89 µM.

And the TGI [23]?
The TGI was 4.83 µM.

And the TGI [24]?
Its TGI is 3.43 µM.

And the TGI [25]?
Its TGI is 3.18 µM.

And the TGI [26]?
The TGI was 3.2 µM.

What about the TGI [27] of the same compound?
Its TGI is 2.35 µM.

What about the TGI [28] of the same compound?
The TGI was 3.28 µM.

What about the TGI [29] of the same compound?
The TGI was 3.37 µM.

And the TGI [30]?
The TGI was 3.41 µM.

What about the TGI [31] of the same compound?
Its TGI is 3.38 µM.

What about the TGI [32] of the same compound?
Its TGI is 3.09 µM.

What about the TGI [33] of the same compound?
The TGI was 3.36 µM.

And the TGI [34]?
The TGI was 3.74 µM.

What about the TGI [35] of the same compound?
The TGI was 4.14 µM.

And the TGI [36]?
Its TGI is 3.89 µM.

What about the TGI [37] of the same compound?
The TGI was 3.63 µM.

And the TGI [38]?
The TGI was 3.46 µM.

And the TGI [39]?
The TGI was 3.38 µM.

What about the TGI [40] of the same compound?
Its TGI is 2.51 µM.

For `CC(C)[C@@H](C(=O)N1CCC[C@H]1C(=O)OCc1ccccc1)N(C)C(=O)[C@H](C(C)C)N(C)C(=O)[C@H](Cc1ccccc1)N(C)C(=O)[C@H](NC(=O)OC(C)(C)C)C(C)C` (Boc-[dV][NMeF][NMeV][NMeV]P-OBn), which GI50 [41] is on record?
Its GI50 is 39.5 µM.

What about the TGI [41] of the same compound?
Its TGI is > 100 µM.

And the TGI [42]?
Its TGI is > 100 µM.

And the GI50 [43]?
Its GI50 is > 100 µM.

What about the TGI [43] of the same compound?
The TGI was > 100 µM.

And the TGI [1]?
The TGI was > 100 µM.

What about the TGI [44] of the same compound?
Its TGI is > 50 µM.

And the GI50 [2]?
Its GI50 is > 100 µM.

And the TGI [2]?
The TGI was > 100 µM.

And the GI50 [45]?
The GI50 was 36.9 µM.

And the TGI [45]?
Its TGI is > 100 µM.

What about the GI50 [3] of the same compound?
The GI50 was 36.1 µM.

And the TGI [3]?
Its TGI is > 100 µM.

What about the TGI [46] of the same compound?
The TGI was > 100 µM.

What about the TGI [4] of the same compound?
Its TGI is > 100 µM.

And the TGI [5]?
The TGI was > 100 µM.

And the TGI [6]?
The TGI was > 50 µM.

And the TGI [47]?
The TGI was > 100 µM.

And the GI50 [7]?
The GI50 was 68.9 µM.

What about the TGI [7] of the same compound?
The TGI was > 100 µM.

And the GI50 [8]?
The GI50 was 19.6 µM.

And the TGI [8]?
Its TGI is > 100 µM.

And the TGI [9]?
Its TGI is > 100 µM.

What about the GI50 [10] of the same compound?
The GI50 was 21.9 µM.

And the TGI [10]?
Its TGI is > 100 µM.

What about the TGI [48] of the same compound?
Its TGI is > 100 µM.

What about the TGI [49] of the same compound?
The TGI was > 100 µM.

And the GI50 [11]?
The GI50 was 20.9 µM.

And the TGI [11]?
Its TGI is > 100 µM.

What about the TGI [12] of the same compound?
Its TGI is > 50 µM.

What about the TGI [13] of the same compound?
Its TGI is > 100 µM.

And the TGI [50]?
Its TGI is > 100 µM.

What about the GI50 [51] of the same compound?
Its GI50 is > 100 µM.

And the TGI [51]?
Its TGI is > 100 µM.

And the GI50 [14]?
The GI50 was > 100 µM.

And the TGI [14]?
Its TGI is > 100 µM.

And the TGI [15]?
Its TGI is > 100 µM.

What about the GI50 [16] of the same compound?
The GI50 was 12.9 µM.

What about the TGI [16] of the same compound?
Its TGI is > 50 µM and 26.6 µM.

And the TGI [17]?
Its TGI is > 100 µM.

What about the GI50 [18] of the same compound?
The GI50 was 41.7 µM.

And the TGI [18]?
The TGI was > 100 µM.

And the TGI [19]?
The TGI was > 100 µM.

And the TGI [20]?
The TGI was > 100 µM.

And the TGI [52]?
The TGI was > 50 µM.

And the TGI [53]?
The TGI was > 50 µM.

What about the TGI [54] of the same compound?
The TGI was > 50 µM.

What about the GI50 [55] of the same compound?
The GI50 was 3.68 µM.

What about the TGI [55] of the same compound?
The TGI was > 100 µM.

And the TGI [21]?
The TGI was > 100 µM.

And the TGI [22]?
The TGI was > 50 µM.

What about the GI50 [56] of the same compound?
The GI50 was 17.5 µM.

What about the TGI [56] of the same compound?
The TGI was > 100 µM.

What about the TGI [57] of the same compound?
Its TGI is > 50 µM.

What about the TGI [23] of the same compound?
Its TGI is > 50 µM.

And the GI50 [24]?
Its GI50 is > 100 µM.

And the TGI [24]?
Its TGI is > 100 µM.

And the TGI [25]?
Its TGI is > 100 µM.

And the TGI [26]?
The TGI was > 100 µM.

What about the TGI [58] of the same compound?
The TGI was > 100 µM.

And the TGI [27]?
Its TGI is > 50 µM.

What about the GI50 [28] of the same compound?
Its GI50 is 4.6 µM.

And the TGI [28]?
Its TGI is > 100 µM.

And the GI50 [59]?
Its GI50 is 22.4 µM.

What about the TGI [59] of the same compound?
Its TGI is > 50 µM and 65.3 µM.

And the GI50 [60]?
The GI50 was > 100 µM.

What about the TGI [60] of the same compound?
Its TGI is > 100 µM.

What about the GI50 [61] of the same compound?
Its GI50 is > 100 µM.

And the TGI [61]?
The TGI was > 100 µM.

What about the TGI [29] of the same compound?
The TGI was > 100 µM.

And the TGI [30]?
The TGI was > 100 µM.

And the TGI [62]?
The TGI was > 100 µM.

And the TGI [31]?
The TGI was > 100 µM.

What about the TGI [32] of the same compound?
The TGI was > 100 µM.

And the TGI [33]?
Its TGI is > 100 µM.

And the TGI [34]?
Its TGI is > 100 µM.

And the GI50 [63]?
Its GI50 is > 100 µM.

And the TGI [63]?
Its TGI is > 100 µM.

And the TGI [64]?
The TGI was > 100 µM.

And the TGI [35]?
Its TGI is > 100 µM.

And the GI50 [65]?
Its GI50 is 12.5 µM.

And the TGI [65]?
Its TGI is > 50 µM and 26.7 µM.

What about the TGI [66] of the same compound?
Its TGI is > 50 µM.

And the TGI [36]?
Its TGI is > 100 µM.

What about the TGI [67] of the same compound?
The TGI was > 100 µM.

And the GI50 [37]?
The GI50 was 16.5 µM.

And the TGI [37]?
Its TGI is > 100 µM.

And the TGI [38]?
The TGI was > 100 µM.

And the TGI [39]?
The TGI was > 100 µM.

And the TGI [40]?
Its TGI is > 100 µM.
